This is an account of results in patent publication US20110028717A1, “AZAINDOLE DERIVATIVE HAVING PGD2 RECEPTOR ANTAGONISTIC ACTIVITY” (priority 2005, published 2011).

Experiment [1] has as its target T1, DP receptor (Homo sapiens, UniProt Q13258).
T1 construct: endogenous in cells; host or cells: washed platelets from peripheral blood of a healthy volunteer
T1 sequence (Q13258 1-359): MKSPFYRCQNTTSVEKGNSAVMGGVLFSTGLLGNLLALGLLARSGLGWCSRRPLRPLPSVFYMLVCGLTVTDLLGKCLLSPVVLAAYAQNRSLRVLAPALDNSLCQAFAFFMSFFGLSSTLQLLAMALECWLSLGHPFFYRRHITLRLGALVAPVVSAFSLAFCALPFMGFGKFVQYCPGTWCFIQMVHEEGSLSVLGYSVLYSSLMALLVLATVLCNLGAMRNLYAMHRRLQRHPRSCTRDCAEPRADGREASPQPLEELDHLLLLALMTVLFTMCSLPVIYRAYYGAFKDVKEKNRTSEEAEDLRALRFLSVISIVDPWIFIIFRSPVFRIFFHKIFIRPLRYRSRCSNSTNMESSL
Nature of the experiment: cAMP assay with washed platelets (PGD2-stimulated cAMP, HTRF). The experiment is classed as cell-based. As to conditions: 100 nM PGD2, cAMP by HTRF, read-out: IC50 (50% DP-inhibitory concentration in the cAMP assay). The protocol: 30 ml of peripheral blood was collected from a healthy volunteer using a syringe containing one ninth amount of 3.8% sodium citrate for diagnosis. After being centrifuged at 180 g for 10 minutes at room temperature, a supernatant was collected and used as Platelet Rich Plasma (PRP). The resulting PRP was washed with wash buffer and centrifuged three times (Washed Platelet: WP) and platelets were counted by a microcell counter. WP was added to a plate in amount of 1.5×10^8/assay and the plate was treated with 3-isobutyl-1-methylxanthin (IBMX; 0.5 mM) for 5 minutes. A reaction was initiated by adding 100 nM of PGD2 5 min after an addition of a test compound. The reaction was terminated with an addition of 1N hydrochloric acid after 2 minutes and the cells were destructed using 12% triton X-100. An amount of cAMP in the supernatant was assayed by Homogeneous […] (HTRF)

In experiment [2] the target is T1, DP receptor. In words: Receptor binding assay, [3H]-PGD2, platelet membrane. As to conditions: [3H]-PGD2, human platelet membrane. The protocol:
A prepared WP was homogenated and a membrane fraction was collected with high-speed centrifugation. A compound of the present invention or a reference compound A (No. IC-73 in WO 2003/097598) was added to the plate and [^3H]-PGD2 was also added. A platelet membrane, a protein concentration is 2 mg/mL, was added and mixed in the plate, and placed on ice for 2 hours. The reaction solution was transferred to a low protein-adsorptive filter and washed with a wash solution eight times using a cell harvester. After the final washing, water was removed sufficiently, and micoscinti was added. DP inhibitory activity was investigated by measuring [^3H] by using Micro Beta.

The subject of another experiment is Brown Norway (BN) Rats. Nature of the experiment: OVA asthma model of rat (hyperresponsive airway, infiltration of inflammatory cells, mucus secretion). As to conditions: 10 mg/kg p.o. once a day for three days; for inhibition rate (%) mucus-secretion: mucin in airway lavage fluid vs control group; for inhibition rate (%) infiltration of inflammatory cells: total cell number in bronchoalveolar washings vs control group; for inhibition rate (%) increased hyperresponsive airway: vs control group, AUC of acetylcholine response. The experiment is classed as in vivo. On the procedure:
Brown Norway (BN) Rats were sensitized by i.p. administration of 0.1 mg/mL of ovalbumin (OVA) and 1 mg of aluminum hydroxide gel. A solution of 1% OVA was aerosolized by ultrasonic nebulizer (NE-U 17) and the rats were subjected to inhalation exposure of the aerosol for 30 minutes in an exposing chamber 12, 19, 26 and 33 days after the sensitization. One hour before the 4th exposure of the antigen, compounds of the present invention were administered in a dose of 10 mg/kg p.o. once a day for three days consecutively. In a control group, 0.5% of methyl cellulose was administered in place of the compound of the present invention.
Under pentobarbital anesthesia (80 mg/kg, i.p.), acetylcholine (3.9, 7.8, 15.6, 31.3, 62.5, 125, 250 and 500 μg/kg) was injected to jugular vein of the rats successively from a lower dose at intervals of 5 minutes three days after the fourth exposure to the antigen, and immediate contractile reaction of airways (an increase of insufflation pressure) was measured by a modified method of Konnzett & Rössler. Inhibition rate of increased hyperresponsive airway against the control group was calculated based on area under curve (AUC) obtained from concentration-response curve of acetylcholine.
After the measurement of increased hyperresponsive airway was completed, bronchoalveoli of the rats were washed with 5 mL of saline three times. Total cell number in the washings was counted by a hemacytometer under light microscope, and inhibition rates of infiltration of inflammatory cells against the control group were calculated. Further, muchin in the airway lavage fluid was measured by ELIZA method using jacalin, a muchin-binding lectin, and the inhibition rates of mucus-secretion against the control group were calculated.

The Ki is a dissociation constant, usually derived from enzyme kinetics or from competition with a known ligand. The low end stands for higher affinity, the high end for lower affinity. As to `CC(C)Oc1ccc(S(=O)(=O)N2CCC(c3cn(CC(=O)O)c4ncccc34)CC2)cc1` [Compound I-1], the IC50 on DP receptor [1] was 0.58 nM. The Ki at DP receptor [2] was found to be 1 nM. In addition, in the experiment on Brown Norway (BN) Rats, the “inhibition rate (%) mucus-secretion” value stood at 68%, the “inhibition rate (%) infiltration of inflammatory cells” value (shortened to “inhibition rate (%) infiltration”) is given as 63% and the “inhibition rate (%) increased hyperresponsive airway” value stood at 55%.

`CC[C@@H](C)Oc1ccc(S(=O)(=O)N2CCC(c3cn(CC(=O)O)c4ncccc34)CC2)cc1` [Compound I-6]: the IC50 on DP receptor [1] was determined as 0.93 nM. On DP receptor [2], this compound registered a Ki of 1 nM. Further, in the experiment on Brown Norway (BN) Rats, the “inhibition rate (%) mucus-secretion” value was determined as 77%, the “inhibition rate (%) infiltration” value was 60% and the “inhibition rate (%) increased hyperresponsive airway” value is reported as 69%.

Turning to `CC(C)Oc1ccc(S(=O)(=O)N2CCC(c3cn(CC(=O)O)c4nc(Br)ccc34)CC2)cc1` [Compound I-13], the IC50 at DP receptor [1] came to 0.51 nM. For the same compound, the Ki at DP receptor [2] came out at 0.85 nM. In addition, in the experiment on Brown Norway (BN) Rats, the “inhibition rate (%) mucus-secretion” value is 44%, the “inhibition rate (%) infiltration” value is recorded as 62% and the “inhibition rate (%) increased hyperresponsive airway” value worked out at 58%.

Regarding `COc1ccc2c(C3CCN(S(=O)(=O)c4ccc(OC(C)C)cc4)CC3)cn(CC(=O)O)c2n1` [Compound I-14], at DP receptor [1], the IC50 was determined as 0.33 nM. At DP receptor [2], this compound returned a Ki of 0.61 nM. In the experiment with Brown Norway (BN) Rats, the “inhibition rate (%) mucus-secretion” value worked out at 88%, the “inhibition rate (%) infiltration” value was found to be 68% and the “inhibition rate (%) increased hyperresponsive airway” value was 84%.

Take `CC(C)Oc1ccc(S(=O)(=O)N2CCC(c3cn(CC(=O)O)c4nc(-c5ccccc5)ccc34)CC2)cc1` [Compound I-16]: the IC50 on DP receptor [1] is 0.64 nM.

For the compound `CC(C)Oc1ccc(S(=O)(=O)N2CCC(c3cn(CC(=O)O)c4nc(-c5ccc(F)cc5)ccc34)CC2)cc1` [Compound I-17], the IC50 at DP receptor [1] was determined as 0.88 nM. Moreover, the affinity on DP receptor [2], expressed as Ki, was 0.25 nM.

Take `CC(C)Oc1ccc(S(=O)(=O)N2CCC(c3cn(CC(=O)O)c4nc(-c5ccccn5)ccc34)CC2)cc1` [Compound I-19]: the IC50 at DP receptor [1] was found to be 2.2 nM.

Take `CC(C)Oc1ccc(S(=O)(=O)N2CCC(c3cn(CC(=O)O)c4nc(-c5nccs5)ccc34)CC2)cc1` [Compound I-20]: the IC50 at DP receptor [1] amounted to 0.64 nM. At DP receptor [2], this compound had a Ki of 0.48 nM.

For `CC(C)Oc1ccc(S(=O)(=O)N2CCC(c3cn(CC(=O)O)c4nc(NC(=O)OC(C)(C)C)ccc34)CC2)cc1` [Compound I-21], the IC50 at DP receptor [1] worked out at 1.9 nM. On DP receptor [2], this compound had a Ki of 0.51 nM.

For the compound `CC(C)Oc1ccc(S(=O)(=O)N2CCC(c3cn(CC(=O)O)c4nc(-c5ccoc5)ccc34)CC2)cc1` [Compound I-25], at DP receptor [1], the IC50 is 1.1 nM.

With `CC(C)Oc1ccc(S(=O)(=O)N2CCC(c3cn(CC(=O)O)c4nc(-c5ccco5)ccc34)CC2)cc1` [Compound I-26], the IC50 at DP receptor [1] was determined as 1.7 nM.

In the case of `CCOc1ccc2c(C3CCN(S(=O)(=O)c4ccc(OC(C)C)cc4)CC3)cn(CC(=O)O)c2n1` [Compound I-29], at DP receptor [1], the IC50 came out at 1.5 nM.

For `CC(C)Oc1ccc(S(=O)(=O)N2CCC(c3cn(CC(=O)O)c4nc(OCc5ccccc5)ccc34)CC2)cc1` [Compound I-31], the IC50 on DP receptor [1] came out at 1.7 nM.
